Tests used:
[1] = test system: CHEAL = lambsquarter (Chenopodium album); assay: General postemergence herbicidal activity, lambsquarter; format: in vivo; details: post-emergent, 140 g ai/ha, visual score after 14 days (0 no injury, 100 complete kill); for pest or weed control at 140 g/ha: Chenopodium album, post-emergence, 336 h
Description: (§1) Seeds or nutlets of the desired test plant species were planted in Sun Gro MetroMix® 306 planting mixture, which typically has a pH of 6.0 to 6.8 and an organic matter content of about 30 percent, in plastic pots with a surface area of 64 square centimeters. When required to ensure good germination and healthy plants, a fungicide treatment and/or other chemical or physical treatment was applied. The plants were grown for 7-21 days in a greenhouse with an approximate 15 hour photoperiod which was maintained at about 23-29° C. during the day and 22-28° C. during the night. Nutrients and water were added on a regular basis and supplemental lighting was provided with overhead metal halide 1000-Watt lamps as necessary. The plants were employed for testing when they reached the first or second true leaf stage.
(§2) A weighed amount, determined by the highest rate to be tested, of each test compound was placed in a 25 mL glass vial and was dissolved in 4 mL of a 97:3 v/v (volume/volume) mixture of acetone and dimethyl sulfoxide (DMSO) to obtain concentrated stock solutions. […] The concentrated stock solutions obtained were diluted with 20 mL of an aqueous mixture containing acetone, water, isopropyl alcohol, DMSO, Atplus 411F crop oil concentrate, and Triton X-155 surfactant in a 48.5:39:10:1.5:1.0:0.02 v/v ratio to obtain spray solutions containing the highest application rates. Additional application rates were obtained by serial dilution of 12 mL of the high rate solution into a solution containing 2 mL of 97:3 v/v (volume/volume) mixture of acetone and dimethyl sulfoxide (DMSO) and 10 mL of an aqueous mixture containing acetone, water, isopropyl alcohol, DMSO, Atplus 411F crop oil concentrate, and Triton X-155 surfactant in a 48.5:39:10:1.5:1.0:0.02 v/v ratio to obtain ½×, ¼×, ⅛× and 1/16× rates of the high rate. Compound requirements are based upon a 12 mL application volume at a rate of 187 L/ha. Formulated compounds were applied to the plant material with an overhead Mandel track sprayer equipped with a 8002E nozzles calibrated to deliver 187 L/ha over an application area of 0.503 square meters at a spray height of 18 inches (43 cm) above the average plant canopy height. Control plants were sprayed in the same manner with the solvent blank.
(§3) The treated plants and control plants were placed in a greenhouse as described above and watered by sub-irrigation to prevent wash-off of the test compounds. After 14 days, the condition of the test plants as compared with that of the untreated plants was determined visually and scored on a scale of 0 to 100 percent where 0 corresponds to no injury and 100 corresponds to complete kill.
(§4) By applying the well-accepted probit analysis as described by J. Berkson in Journal of the […], 48, 565 (1953) and by D. Finney in “Probit Analysis” Cambridge University Press (1952), the above data can be used to calculate GR50 and GR80 values, which are defined as growth reduction factors that correspond to the effective dose of herbicide required to kill or control 50 percent or 80 percent, respectively, of a target plant.

[2] = test system: ABUTH = velvetleaf (Abutilon theophrasti); assay: General postemergence herbicidal activity, velvetleaf; format: in vivo; details: post-emergent, 140 g ai/ha, visual score after 14 days (0 no injury, 100 complete kill); for pest or weed control at 140 g/ha: Abutilon theophrasti, post-emergence, 336 h
Description: as §1, §2, §3, §4

[3] = test system: HELAN = sunflower (Helainthus annuus); assay: General postemergence herbicidal activity, sunflower; format: in vivo; details: post-emergent, 140 g ai/ha, visual score after 14 days (0 no injury, 100 complete kill); for pest or weed control at 140 g/ha: post-emergence, 336 h
Description: as §1, §2, §3, §4

[4] = test system: HELAN = sunflower (Helianthus annuus); assay: General preemergence herbicidal activity, sunflower; format: in vivo; details: pre-emergent, 140 g ai/ha, visual score after 20-22 days; for pest or weed control at 140 g/ha: Helianthus annuus, pre-emergence, 480 h
Description: (§5) Seeds of the desired test plant species were planted in a soil matrix prepared by mixing a loam soil (43 percent silt, 19 percent clay, and 38 percent sand, with a pH of about 8.1 and an organic matter content of about 1.5 percent) and sand in a 70 to 30 ratio. The soil matrix was contained in plastic pots with a surface area of 113 square centimeters. When required to ensure good germination and healthy plants, a fungicide treatment and/or other chemical or physical treatment was applied. A weighed amount, determined by the highest rate to be tested, of each test compound was placed in a 25 mL glass vial and was dissolved in 6 mL of a 97:3 v/v (volume/volume) mixture of acetone and DMSO to obtain concentrated stock solutions. […] The stock solutions obtained were diluted with 18 mL of a 0.1% v/v aqueous solution of Tween® 20 surfactant to obtain spray solutions containing the highest application rate. Additional application rates were obtained by serial dilution of 12 mL of the high rate solution into a solution containing 3 mL of 97:3 v/v mixture of acetone and DMSO and 9 mL of the 0.1% v/v aqueous solution of Tween® 20 surfactant to obtain 1⁄2×, 1⁄4×, 1⁄8× and 1/16× rates of the high rate. Compound requirements are based upon a 12 mL application volume at a rate of 187 L/ha. Formulated compounds were applied to the plant material with an overhead Mandel track sprayer equipped with a […] nozzles calibrated to deliver 187 L/ha over an application area of 0.503 square meters at a spray height of 18 inches (43 cm) above the soil surface. Control plants were sprayed in the same manner with the solvent blank. The treated pots and control pots were placed in a greenhouse maintained with an approximate 15 hour photoperiod and temperatures of about 23-29° C. during the day and 22-28° C. during the night. Nutrients and water were added on a regular basis and supplemental lighting was provided with overhead metal halide 1000-Watt lamps as necessary. The water was added by top-irrigation. After 20-22 days, the condition of the test plants that germinated and grew as compared with that of the untreated plants that emerged and grew was determined visually and scored on a scale of 0 to 100 percent where 0 corresponds to no injury and 100 corresponds to complete kill or no emergence.

[5] = test system: CHEAL = lambsquarter (Chenopodium album); assay: General preemergence herbicidal activity, lambsquarter; format: in vivo; details: pre-emergent, 140 g ai/ha, visual score after 20-22 days; for pest or weed control at 140 g/ha: Chenopodium album, pre-emergence, 480 h
Description: as §5

[6] = test system: ABUTH = velvetleaf (Abutilon theophrasti); assay: General preemergence herbicidal activity, velvetleaf; format: in vivo; details: pre-emergent, 140 g ai/ha, visual score after 20-22 days; for pest or weed control at 140 g/ha: Abutilon theophrasti, pre-emergence, 480 h
Description: as §5

melting point | Compound | pest or weed control at 140 g/ha [1] | pest or weed control at 140 g/ha [2] | pest or weed control at 140 g/ha [3] | other results
166 to 168 °C | COC(=O)c1nc(-c2ccc(Cl)c(C)c2F)nc(N)c1Cl [Compound 11, 6-Amino-5-chloro-2-(4-chloro-2-fluoro-3-methylphenyl)pyrimidine-4-carboxylic acid methyl ester] | 95% | 95% | 100% | pest or weed control at 140 g/ha [4]: 100%; pest or weed control at 140 g/ha [5]: 60%; pest or weed control at 140 g/ha [6]: 100%
167 to 169 °C | COC(=O)c1nc(-c2ccc(Cl)c(SC(F)(F)F)c2F)nc(N)c1Cl [Compound 14, 6-amino-5-chloro-2-(4-chloro-2-fluoro-3-trifluoro-methylthiophenyl)pyrimidine-4-carboxylic acid methyl ester] | 50% | 80% | 90% | –
172 to 173 °C | COc1c(Cl)ccc(-c2nc(N)c(Cl)c(C(=O)O)n2)c1F [Compound 15, 6-amino-5-chloro-2-(4-chloro-2-fluoro-3-methoxyphenyl)-pyrimidine-4-carboxylic acid] | 100% | 100% | 100% | pest or weed control at 140 g/ha [4]: 100%; pest or weed control at 140 g/ha [5]: 100%; pest or weed control at 140 g/ha [6]: 100%
210 to 212 °C | Cc1c(Cl)ccc(-c2nc(N)c(Cl)c(C(=O)O)n2)c1F [Compound 20, 6-Amino-5-chloro-2-(4-chloro-2-fluoro-3-methylphenyl)pyrimidine-4-carboxylic acid] | 100% | 90% | 100% | –
181 to 183 °C | CN(C)c1c(Cl)ccc(-c2nc(N)c(Cl)c(C(=O)O)n2)c1F [Compound 23, 6-Amino-5-chloro-2-(4-chloro-3-dimethylamino-2-fluorophenyl)pyrimidine-4-carboxylic acid] | 100% | 95% | 95% | –
166 to 168 °C | Nc1nc(-c2ccc(Cl)c(C(F)F)c2F)nc(C(=O)O)c1Cl [Compound 24, 6-Amino-5-chloro-2-(4-chloro-3-difluoromethyl-2-fluorophenyl)pyrimidine-4-carboxylic acid] | 95% | 80% | 90% | –
173 to 175 °C | COc1c(Cl)ccc(-c2nc(N)c(Br)c(C(=O)O)n2)c1F [Compound 25, 6-Amino-5-bromo-2-(4-chloro-2-fluoro-3-methoxyphenyl)pyrimidine-4-carboxylic acid] | 100% | 95% | 100% | –

The remaining lines, values behind:

Compound | melting point | pest or weed control at 140 g/ha [1] | pest or weed control at 140 g/ha [2] | pest or weed control at 140 g/ha [3] | other results
COC(=O)c1nc(-c2cc(OC)c(Cl)cc2F)nc(N)c1Cl [Compound 5, 6-Amino-5-chloro-2-(4-chloro-2-fluoro-5-methoxyphenyl)pyrimidine-4-carboxylic acid methyl ester] | – | 100% | 95% | 95% | –
COC(=O)c1nc(-c2ccc(Cl)c(OC)c2F)nc(N)c1F [Compound 12, 6-amino-2-(4-chloro-2-fluoro-3-methoxy-phenyl)-5-fluoro-pyrimidine-4-carboxylic acid methyl ester] | 200 to 202 °C | 95% | 85% | 100% | –
Cc1c(F)sc(-c2nc(N)c(Cl)c(C(=O)O)n2)c1Cl [Compound 16, 6-Amino-5-chloro-2-(4-chloro-2-fluoro-3-methylthiophenyl)pyrimidine-4-carboxylic acid] | 139 to 141 °C | – | – | – | –
COc1cc(-c2nc(N)c(Cl)c(C(=O)O)n2)c(F)cc1Cl [Compound 17, 6-Amino-5-chloro-2-(4-chloro-2-fluoro-5-methoxyphenyl)pyrimidine-4-10 carboxylic acid] | – | – | – | – | % Control CHEAL [1]: 100%; % Control HELAN [4]: 0%; % Control CHEAL [5]: 95%; % Control ABUTH [2]: 50%; % Control HELAN [3]: 80%; % Control ABUTH [6]: 100%
COc1c(Cl)ccc(-c2nc(N)c(Cl)c(C(=O)O)n2)c1Cl [Compound 18, 6-Amino-5-chloro-2-(2,4-dichloro-3-methoxyphenyl)pyrimidine-4-carboxylic acid] | – | 100% | 75% | 95% | pest or weed control at 140 g/ha [4]: 100%; pest or weed control at 140 g/ha [5]: 100%; pest or weed control at 140 g/ha [6]: 100%
Nc1nc(-c2ccc(Cl)c(OCC(F)F)c2F)nc(C(=O)O)c1Cl [Compound 21, 6-Amino-5-chloro-2-[4-chloro-3-(2,2-difluoroethoxy)-2-fluorophenyl]-pyrimidine-4-carboxylic acid] | – | 90% | 0% | 80% | –
Nc1nc(-c2ccc3c(c2F)OCO3)nc(C(=O)O)c1Cl [Compound 22, 6-Amino-5-chloro-2-(4-fluoro-benzo[1,3]-dioxol-5-yl)pyrimidine-4-carboxylic acid] | – | 95% | 80% | 90% | –

Reference: patent US9199943B2, “2-(poly-substituted aryl)-6-amino-5-halo-4-pyrimidinecarboxylic acids and their use as herbicides” (Dow AgroSciences, LLC., priority 2006, dated 2015)
